Patent publication US12448388B2, “PRMT5 inhibitors and uses thereof” (Gilead Sciences, Inc., priority 2023, dated 2025)
Like-named read-outs stand apart in the source and are kept apart here.

System: HCT116 MTAP-deleted cell lines
Assay: Cell viability assay (CellTiter-Glo, 7 days), HCT116 MTAP-deleted
Format: cell-based
Conditions: Homo sapiens, HCT-116, HCT116 MTAP-deleted, class symbols, read-out: CC50
Procedure, shortened: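 First, compounds are serially diluted in DMSO and dispensed into plates, which are frozen until seeding. Next, cells are added and incubated 7 days at 37 °C, 5% CO2, 90% humidity. Finally, CellTiter-Glo reagent is added and luminescence is measured to derive CC50.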

Structure (SMILES)	CC50 (cell viability) [nM]	CC50 (cell viability assay) [nM]
Nc1nc2cc(F)c(C(=O)N3CCC[C@@H]4OCc5cc(-c6cnn(C(F)F)c6)ccc5[C@@H]43)cc2n2cncc12 (racemic) [Ff-296, Rac-(4-amino-7-fluoroimidazo[1,5-a]quinoxalin-8-yl)((4aS,10bS)-8-(1-(difluoromethyl)-1H-pyrazol-4-yl)-2,3,4,4a,6,10b-hexahydro-1H-isochromeno[4,3-b]pyridin-1-yl)methanone]	< 100	–
Nc1nc2cc(F)c(C(=O)N3CCCC[C@@H]3c3ccc(S(F)(F)(F)(F)F)cc3)cc2n2cncc12 [Ff-404, (R)-(4-amino-7-fluoroimidazo[1,5-a]quinoxalin-8-yl)(2-(4-(pentafluoro-λ^6-sulfaneyl)phenyl)piperidin-1-yl)methanone]	–	< 100
CN(C(=O)c1cc2c(cc1F)nc(N)c1cncn12)[C@@H]1COc2cc(C#CC3(C(F)F)CCOCC3)ccc21 [Ff-437, (S)-4-amino-N-(6-((4-(difluoromethyl)tetrahydro-2H-pyran-4-yl)ethynyl)-2,3-dihydrobenzofuran-3-yl)-7-fluoro-N-methylimidazo[1,5-a]quinoxaline-8-carboxamide]	–	< 100
CC(C)N(Cc1ccc(-c2cnn(C(F)F)c2)cc1F)C(=O)c1ccc2nc(N)c3cncn3c2c1 [Ff-51, 4-amino-N-(4-(1-(difluoromethyl)-1H-pyrazol-4-yl)-2-fluorobenzyl)-N-isopropylimidazo[1,5-a]quinoxaline-8-carboxamide]	100 to 1000	–
CN(C(=O)c1ccc2nc(N)c3cncn3c2c1)[C@@H]1COc2cc(C#CC3(O)COC3)ccc21 [Ff-527, (S)-4-amino-N-(6-((3-hydroxyoxetan-3-yl)ethynyl)-2,3-dihydrobenzofuran-3-yl)-N-methylimidazo[1,5-a]quinoxaline-8-carboxamide]	–	100 to 1000
Nc1nc2cc(F)c(C(=O)N3CCCCC3c3ccc(C(F)(F)F)cc3F)cc2n2cncc12 (stereo not drawn) [Ff-141, (4-amino-7-fluoroimidazo[1,5-a]quinoxalin-8-yl)(2-(2-fluoro-4-(trifluoromethyl)phenyl)piperidin-1-yl)methanone]	< 100	–
CN(C(=O)c1cc2c(cc1F)nc(N)c1cncn12)[C@@H]1COc2cc(-c3cnn(-c4ccccc4)c3)ccc21 [Ff-472, (S)-4-amino-7-fluoro-N-methyl-N-(6-(1-phenyl-1H-pyrazol-4-yl)-2,3-dihydrobenzofuran-3-yl)imidazo[1,5-a]quinoxaline-8-carboxamide]	–	< 100
COc1cc(C(F)(F)F)ccc1[C@H](C)N(C)C(=O)c1cc2c(cc1F)nc(N)c1cncn12 [Ff-536, (S)-4-amino-7-fluoro-N-(1-(2-methoxy-4-(trifluoromethyl)phenyl)ethyl)-N-methylimidazo[1,5-a]quinoxaline-8-carboxamide]	–	100 to 1000
Nc1nc2ccc(C(=O)N(Cc3ccc(C(F)(F)F)cc3F)C34CC(C3)C4)cc2n2cncc12 [Ff-202, 4-amino-N-(bicyclo[1.1.1]pentan-1-yl)-N-(2-fluoro-4-(trifluoromethyl)benzyl)imidazo[1,5-a]quinoxaline-8-carboxamide]	100 to 1000	–
Cc1ncc2c(N)nc3cc(F)c(C(=O)N4CCC[C@@H]5OCc6nc(C(F)(F)F)ccc6[C@@H]54)cc3n12 [Ff-359, (4-amino-7-fluoro-1-methylimidazo[1,5-a]quinoxalin-8-yl)((4aS,10bS)-8-(trifluoromethyl)-2,3,4,4a,6,10b-hexahydro-1H-pyrano[3,2-b:5,4-b′]dipyridin-1-yl)methanone]	< 100	–
CN(C(=O)c1cc2c(cc1F)nc(N)c1cncn12)[C@H](CC1CC1)c1ccc(C(F)(F)F)cn1 [Ff-541, (R)-4-amino-N-(2-cyclopropyl-1-(5-(trifluoromethyl)pyridin-2-yl)ethyl)-7-fluoro-N-methylimidazo[1,5-a]quinoxaline-8-carboxamide]	–	100 to 1000
C[C@@H]1C[C@@H]2Oc3cc(C(F)(F)F)c(F)cc3[C@@H]2N(C(=O)c2cc3c(cn2)nc(N)c2cncn23)C1 [Ff-261, (4-aminoimidazo[1,5-a]pyrido[3,4-e]pyrazin-8-yl)((3R,4aS,9bS)-8-fluoro-3-methyl-7-(trifluoromethyl)-3,4,4a,9b-tetrahydrobenzofuro[3,2-b]pyridin-1(2H)-yl)methanone]	< 100	–
Nc1nc2cc(F)c(C(=O)N3CCC[C@@H]4Oc5cc(-c6cnn(C(F)(F)F)c6)ccc5[C@@H]43)cc2n2cncc12 [Ff-655, (4-amino-7-fluoroimidazo[1,5-a]quinoxalin-8-yl)((4aS,9bS)-7-(1-(trifluoromethyl)-1H-pyrazol-4-yl)-3,4,4a,9b-tetrahydrobenzofuro[3,2-b]pyridin-1(2H)-yl)methanone]	–	< 100
Nc1nc2ccc(C(=O)N3CCC[C@@H]4Oc5c(ccc(C(F)(F)F)c5F)[C@@H]43)cc2n2cncc12 [Ff-118, (4-aminoimidazo[1,5-a]quinoxalin-8-yl)((4aS,9bS)-6-fluoro-7-(trifluoromethyl)-3,4,4a,9b-tetrahydrobenzofuro[3,2-b]pyridin-1(2H)-yl)methanone]	< 100	–
Nc1nc2cc(F)c(C(=O)N3CCC[C@@H]4OCc5cc(-c6cnn(C7CC7)c6)ccc5[C@@H]43)cc2n2cncc12 (racemic) [Ff-297, Rac-(4-amino-7-fluoroimidazo[1,5-a]quinoxalin-8-yl)((4aS,10bS)-8-(1-cyclopropyl-1H-pyrazol-4-yl)-2,3,4,4a,6,10b-hexahydro-1H-isochromeno[4,3-b]pyridin-1-yl)methanone]	< 100	–
CC(=O)N(C)N(Cc1ccc(C(F)(F)F)cc1Cl)C(=O)c1ccc2nc(N)c3cncn3c2c1 [Fb-17, N′-acetyl-4-amino-N-(2-chloro-4-(trifluoromethyl)benzyl)-N′-methylimidazo[1,5-a]quinoxaline-8-carbohydrazide]	< 100	–
CC(C)c1ccc2c(c1)OC[C@H]2N(C)C(=O)c1cc2c(cc1F)nc(N)c1cncn12 [Ff-479, (S)-4-amino-7-fluoro-N-(6-isopropyl-2,3-dihydrobenzofuran-3-yl)-N-methylimidazo[1,5-a]quinoxaline-8-carboxamide]	–	< 100
Nc1nc2cc(F)c(C(=O)N3CCO[C@@H]4Cc5cc(-c6ccc(C(F)(F)F)cc6)ccc5[C@@H]43)cc2n2cncc12 [Ff-240, (4-amino-7-fluoroimidazo[1,5-a]quinoxalin-8-yl)((4aS,9aR)-7-(4-(trifluoromethyl)phenyl)-2,3,9,9a-tetrahydroindeno[2,1-b][1,4]oxazin-4(4aH)-yl)methanone]	100 to 1000	–
CN(C(=O)c1cc2c(cc1F)nc(N)c1cncn12)C1COc2ccc(C(F)(F)F)cc21 (stereo not drawn) [Ff-458, 4-amino-7-fluoro-N-methyl-N-(5-(trifluoromethyl)-2,3-dihydrobenzofuran-3-yl)imidazo[1,5-a]quinoxaline-8-carboxamide]	–	< 100
Cc1ncn2c1c(N)nc1ccc(C(=O)N3C[C@@H](F)C[C@@H]4Oc5cc(OC(F)(F)F)ccc5[C@@H]43)cc12 [Fg-47, (4-amino-3-methylimidazo[1,5-a]quinoxalin-8-yl)((3S,4aS,9bS)-3-fluoro-7-(trifluoromethoxy)-3,4,4a,9b-tetrahydrobenzofuro[3,2-b]pyridin-1(2H)-yl)methanone]	–	< 100
Nc1nc2ccc(C(=O)N(Cc3ccc(C(F)(F)F)cc3F)C3CCC3)cc2n2cncc12 [Ff-408, 4-amino-N-cyclobutyl-N-[[2-fluoro-4-(trifluoromethyl)phenyl]methyl]imidazo[1,5-a]quinoxaline-8-carboxamide]	–	< 100
CN(C(=O)c1cc2c(cn1)nc(N)c1cncn12)[C@H]1c2ccc(C(F)(F)F)cc2[C@@H]2C[C@@H]21 [Ff-254, 4-amino-N-methyl-N-((1aR,6R,6aS)-3-(trifluoromethyl)-1,1a,6,6a-tetrahydrocyclopropa[a]inden-6-yl)imidazo[1,5-a]pyrido[3,4-e]pyrazine-8-carboxamide]	100 to 1000	–
CC(C)N(Cc1ccc(Oc2ccccc2)cc1)C(=O)c1ccc2nc(N)c3cncn3c2c1 [Ff-57, 4-amino-N-isopropyl-N-(4-phenoxybenzyl)imidazo[1,5-a]quinoxaline-8-carboxamide]	100 to 1000	–
C[C@H]1CN(C(=O)c2cc3c(cc2F)nc(N)c2cncn23)[C@H]2c3ccc(Br)cc3C[C@H]2O1 [Ff-93, (4-amino-7-fluoroimidazo[1,5-a]quinoxalin-8-yl)((2S,4aS,9aR)-7-bromo-2-methyl-2,3,9,9a-tetrahydroindeno[2,1-b][1,4]oxazin-4(4aH)-yl)methanone]	< 100	–
Nc1nc2cc(F)c(C(=O)N3CCCC[C@@H]3c3ccc(C(F)(F)F)cc3)cc2n2cncc12 [Ff-139, (R)-(4-amino-7-fluoroimidazo[1,5-a]quinoxalin-8-yl)(2-(4-(trifluoromethyl)phenyl)piperidin-1-yl)methanone]	< 100	–
CN(Cc1ccc(C(F)(F)F)cc1C(F)(F)F)C(=O)c1ccc2nc(N)c3cncn3c2c1 [Ff-409, 4-amino-N-[[2,4-bis(trifluoromethyl)phenyl]methyl]-N-methyl-imidazo[1,5-a]quinoxaline-8-carboxamide]	–	100 to 1000
CN(C(=O)c1ccc2nc(N)c3cncn3c2c1)[C@@H]1COc2cc(OC(F)(F)F)ccc21 [Ff-563, (S)-4-amino-N-methyl-N-(6-(trifluoromethoxy)-2,3-dihydrobenzofuran-3-yl)imidazo[1,5-a]quinoxaline-8-carboxamide]	–	< 100
Nc1nc2ccc(C(=O)N3CC[C@H]4C[C@@H]3c3ccc(C(F)(F)F)cc34)cc2n2cncc12 (racemic) [Ff-74, (Rac)-(4-aminoimidazo[1,5-a]quinoxalin-8-yl)(7-(trifluoromethyl)-1,3,4,5-tetrahydro-2H-1,5-methanobenzo[c]azepin-2-yl)methanone]	100 to 1000	–
COc1ccc2c(c1)CO[C@H]1CCCN(C(=O)c3cc4c(cc3F)nc(N)c3cncn34)[C@@H]21 (single isomer, unassigned) [Ff-390]	–	< 100
CCN(C(=O)c1ccc2nc(N)c3cncn3c2c1)[C@@H](c1ccc(C(F)(F)F)cc1F)C(F)F [Fb-15, (S)-4-amino-N-(2,2-difluoro-1-(2-fluoro-4-(trifluoromethyl)phenyl)ethyl)-N-ethylimidazo[1,5-a]quinoxaline-8-carboxamide]	< 100	–
